Laboratory results reported in ChEMBL document CHEMBL1142197, “The relationship between quinolone exposures and resistance amplification is characterized by an inverted U: a new paradigm for optimizing pharmacodynamics to counterselect resistance” (2007).
Converted amounts (≈) assume the structure as drawn.

Tests used:
Assay type in all cases: functional
Staphylococcus aureus [1] = experiment: Antibacterial activity against ciprofloxacin-resistant methicillin-resistant Staphylococcus aureus at 48 hrs by broth macrodilution method
Staphylococcus aureus [2] = experiment: Antibacterial activity against ciprofloxacin-resistant methicillin-resistant Staphylococcus aureus by broth macrodilution method
Klebsiella pneumoniae [3] = experiment: Antibacterial activity against Klebsiella pneumoniae ATCC 13883 by broth macrodilution method
Staphylococcus aureus [4] = experiment: Antibacterial activity against ciprofloxacin-susceptible methicillin-resistant Staphylococcus aureus by broth macrodilution method
Klebsiella pneumoniae [5] = experiment: Antibacterial activity against Klebsiella pneumoniae ATCC 13883 by broth macrodilution method at 48 hrs; conditions: ATCC 13883, 48 h
Staphylococcus aureus [6] = experiment: Antibacterial activity against ciprofloxacin-susceptible methicillin-resistant Staphylococcus aureus at 48 hrs by broth macrodilution method

C[C@H]1NCc2cc(-c3ccc4c(=O)c(C(=O)O)cn(C5CC5)c4c3OC(F)F)ccc21 [GARENOXACIN]
MIC (Staphylococcus aureus [1]): 2.56 µg/mL (≈ 6 µM)
MBC (Staphylococcus aureus [2]): 0.32 µg/mL (≈ 0.75 µM)
MIC (Staphylococcus aureus [2]): 0.16 µg/mL (≈ 0.375 µM)
MBC (Klebsiella pneumoniae [3]): 0.32 µg/mL (≈ 0.75 µM)
MIC (Klebsiella pneumoniae [3]): 0.16 µg/mL (≈ 0.375 µM)
MBC (Staphylococcus aureus [4]): 0.32 µg/mL (≈ 0.75 µM)
MIC (Staphylococcus aureus [4]): 0.04 µg/mL (≈ 0.0938 µM)
MIC (Klebsiella pneumoniae [5]): 0.64 µg/mL (≈ 1.5 µM)
MIC (Staphylococcus aureus [6]): 0.08 µg/mL (≈ 0.188 µM)
